According to patent publication US20230193341A1, “EXPRESSION SYSTEMS, RECOMBINANT CELLS AND USES THEREOF” (Selexis SA, priority 2018, published 2023):

Assays:
Type in all cases: cell-based, Chinese hamster
DTE cells = assay: Bezafibrate treatment of DTE CHO cells: target gene induction, production and fitness
Method: (§1) Antibiotic-selected DTE (Infliximab) cells were stably transfected with mouse PPARα or with an empty vector. Analyses of gene expression, IgG titer and cell viability were performed comparing DTE clone with empty vector cell and PPARα overexpressing cells (PPARα_OE). (A) Gene expression of PPARα targets, PPARα and IgG (qRT-PCR) in none-treated cells or cells treated with Bezafibrate (BEZA). Bezafibrate was added at 10 mM at day 1 of the fed-batch culture. RNA was extracted at day 6 of the fed-batch culture. Infliximab IgG specific productivity (B) and cell viability (C) are illustrated in non-selective or B5-starving media. Cells were cultured in 12 well-plate at a starting amount of 2*105 cell/ml in non-selective or B5 starving medium for 5 days, then transferred in non-selective media. IgG specific productivity (PCD) was then measured over 3 days of culture in non-selective media. Each measurement is the result of three independent cultures. Statistics: * P≤0.05 and ** P≤0.02 (t-test; 1 sided; unpaired sample, unequal variance).
(§2) Growth and IgG secretion performances in fed-batch culture were performed according to Le Fourn et al., 2013, with the following changes: IgG producing clone stably transfected for the expression of MIPs were seeded at 300′000 cells/ml in 5 mL culture medium in falcon of 50 mL. Viable cell density and IgG titer (g/L) were evaluated after 3, 6, 8, 9, 10 and 13 days.
(§3) For quantitative PCR (qPCR) analysis, total RNA was extracted from […] and reverse transcribed into cDNA using the GoScript Reverse transcription System (Promega). Transcripts accumulation was quantified by qPCR using the LightCycler© 480 SYBR Green I Master and the LightCycler 480 II instrument (Roche). Transcript levels were normalized to that of SDHA housekeeping gene.

PPAR target genes = assay: RT-qPCR of candidate / PPAR target gene expression in ETE (Trastuzumab) clone in fed-batch culture; conditions: 10 mM Bezafibrate added after 3 days of fed-batch, RT-qPCR at day 6 (FIG. 6A)
Method: (§4) (A) ETE clone (Trastuzumab) non-treated (Control) or treated with 10 mM Bezafibrate PPARα ligand after […] of fed-batch culture (+Bezafibrate). Candidate gene expression were quantified at day 6 by RT-qPCR. (B) ETE cells treated with 10 mM Bezafibrate after 1-day fed-batch, and IgG titer measured after 10 days. Data are means±SE from four independent experiments. * P≤0.05 and ** P≤0.02 (t-test; 2 sided; unpaired sample, unequal variance).
as §2, §3

ETE (Trastuzumab) cells = assay: Fed-batch culture of ETE (Trastuzumab) CHO cells: IgG production and cell survival
Method: as §4
The percentage of fluorescent cells and the fluorescence intensity of GFP positive cells were determined by flow cytometry analysis using a CyAn ADP flow cytometer (BECKMAN COULTER). Immunoglobulin concentrations in cell culture supernatants were measured by sandwich ELISA. GFP, IgG1Lc, IgG1Hc and MIP transcript accumulation was confirmed by RT-quantitative PCR assays before analyses.
as §2

exogenous PPARα = assay: DTE (Infliximab) cells stably overexpressing mouse PPARα (PPARα_OE): gene expression (qRT-PCR) and IgG productivity
Method: as §1
as §3, with “Transcript levels were normalized to that of SDHA housekeeping gene.” left out

Structure (SMILES): CC(C)(Oc1ccc(CCNC(=O)c2ccc(Cl)cc2)cc1)C(=O)O [Bezafibrate, 2-[4-[2-(4-chlorobenzamido)ethyl]phenoxy]-2-methylpropanoic acid]
- cell production and fitness (DTE cells): the cell production and fitness weren't improved
- induction of PPAR target genes (DTE cells): the same target genes are induced
- cell division, viability and recombinant protein production (DTE cells; increased bezafibrate concentration, data not shown): doesn't show any beneficial effect
- expression of B5-target Slc22a14 (PPAR target genes): activated
- expression of Cyp4a14 (PPAR target genes): not induced
- expression of PPAR target genes HmgCs2, Acot1, DBI1, AscI1 and RXR nuclear receptor (PPAR target genes): induces PPAR target genes
- recombinant protein (IgG titer) at the end of the fed-batch (ETE (Trastuzumab) cells; ETE cells, 10 mM Bezafibrate added at day 1 of fed-batch, IgG titer after 10 days (FIG. 6B)): beneficial for recombinant protein
- cell division, viability and recombinant protein production (ETE (Trastuzumab) cells; ETE cells, increased bezafibrate concentration, data not shown): doesn't show any beneficial effect
- cell survival under starvation stress during the fed-batch process (ETE (Trastuzumab) cells; addition at day 3 of the fed-batch, data not shown): significantly improved cell survival
- IgG production (ETE (Trastuzumab) cells; addition at day 3 of the fed-batch, normal fed-batch conditions of feeding): no improvement of IgG production
- IgG productivity (exogenous PPARα; PPARα_OE DTE (Infliximab) cells with bezafibrate (FIG. 7B)): higher IgG productivity
- transcription of PPAR-target genes, RXR nuclear factor and IgG light and heavy chains (exogenous PPARα; PPARα_OE DTE (Infliximab) cells, Bezafibrate 10 mM at day 1, RNA at day 6 of fed-batch (FIG. 7A)): induced the transcription of PPAR-target genes
